Active and inactive are the calls of the source. The calls are words filed in the database; no cut-off is given here.

For test [1], the target named is Heat shock protein beta-1 (Homo sapiens, UniProt P04792). The experiment in a line: Binding affinity to HSP27 (79 to 176 residues) (unknown origin) expressed in Escherichia coli BL21 (DE3) cells by HSQC NMR analysis. As to conditions: for Kd: read-out: Kd(app).
Test [2] is described as follows: Binding affinity to HSP27 C59A mutant (79 to 176 residues) (unknown origin) expressed in Escherichia coli BL21 (DE3) cells by HSQC NMR analysis. As to conditions: read-out: Kd(app). On the set-up: species or system Homo sapiens.
Test [3] is described as follows: Binding affinity to HSP27 H46A mutant (79 to 176 residues) (unknown origin) expressed in Escherichia coli BL21 (DE3) cells by HSQC NMR analysis. On the set-up: species or system Homo sapiens. Particulars: read-out: Kd(app).
A short description of test [4]: Binding affinity to HSP27 L21A mutant (79 to 176 residues) (unknown origin) expressed in Escherichia coli BL21 (DE3) cells by HSQC NMR analysis. On the set-up: species or system Homo sapiens. As to conditions: read-out: Kd(app).
Test [5] is described as follows: Binding affinity to HSP27 I56A mutant (79 to 176 residues) (unknown origin) expressed in Escherichia coli BL21 (DE3) cells by HSQC NMR analysis. On the set-up: species or system Homo sapiens. Particulars: read-out: Kd(app).
Test [6] is described as follows: Binding affinity to HSP27 V23A mutant (79 to 176 residues) (unknown origin) expressed in Escherichia coli BL21 (DE3) cells by HSQC NMR analysis. Particulars: read-out: Kd(app). On the set-up: species or system Homo sapiens.
The nature of test [7]: Binding affinity to HSP27 T61L mutant (79 to 176 residues) (unknown origin) expressed in Escherichia coli BL21 (DE3) cells by HSQC NMR analysis. On the set-up: species or system Homo sapiens. As to conditions: read-out: Kd(app).

Sequence of Heat shock protein beta-1 (P04792 whole entry, the tested form may be a part): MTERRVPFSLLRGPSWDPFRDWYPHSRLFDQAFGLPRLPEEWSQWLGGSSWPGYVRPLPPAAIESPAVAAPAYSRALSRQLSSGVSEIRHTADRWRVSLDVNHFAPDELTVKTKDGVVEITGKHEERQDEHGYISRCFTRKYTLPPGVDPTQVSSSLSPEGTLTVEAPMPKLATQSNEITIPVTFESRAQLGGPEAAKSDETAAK

As for `O=[N+]([O-])c1cccnc1Oc1ccc(F)cc1F`, in test [1], the Kd is 177 µM.

As to `O=[N+]([O-])c1cc(Oc2ccc(F)cc2F)ccc1Oc1ccc(F)cc1F`, the “Kd(app)” value in test [1] is “inactive”. As to `O=[N+]([O-])c1ccc(Oc2ccc(F)cc2F)c([N+](=O)[O-])c1`, the Kd in test [2] is 67 µM; in test [3], 240 µM; in test [4], 42 µM; in test [5] it was 63 µM; in test [6] it was 69 µM; in test [7], 32 µM. In the case of `Nc1cccnc1Oc1ccc(F)cc1F`, the Kd in test [1] is greater than 1000 µM.

Take `O=[N+]([O-])c1cccnc1Oc1ccc(I)cc1`: the “Kd(app)” value in test [1] was “inactive”. On to `O=C(Oc1ccc(F)cc1F)c1ccc([N+](=O)[O-])cc1`, for which, in test [1], the “Kd(app)” value is “inactive”.

These data come from ChEMBL document CHEMBL4715914, “Chemical validation of a druggable site on Hsp27/HSPB1 using in silico solvent mapping and biophysical methods” (Bioorg Med Chem, 2021).
